Here are results for six compounds from patent US20080233251A1, “Method and Apparatus for Sterilizing Containers” (priority 2005, published 2008).

Holding throughout (assay type): cell-based
The subject of assay [1] is B. subtilis var. globigii (ATCC 9372). To be noted: surviving count per replicate strip (replicates 1-5), 50° C., inoculum 10^6. The source says: (§1) The following examples illustrate the efficacy of the method of the present invention. The experiments were designed to identify the conditions optimal for polymer sterilization and also explore the boundary areas to determine the conditions limiting the efficacy of the treatment. Each polymer strip was inoculated by drop spotting approximately 100 micro-liters and coating the surface by swabbing the surface of the polyethylene strip. The culture was allowed to dry before sterilization. Each strip of polyethylene was treated by vigorously agitating the strip in the appropriate treatment solutions. Each treated polymer strip was then treated with catalase to inactivate residual peroxide, swabbed and plated using TGE incubated at 35° C. for two days.
In Table One, a NaOH control, an inoculated untreated control, and two methods of the present invention were measured and the results set forth in Table 1. Five replicate polymer strips were used for each of the two methods of the present invention. A log measurement value is provided below each of the non-log values. The first method uses hydrogen peroxide first and then an alkaline solution of sodium hydroxide. The second method uses an alkaline solution of sodium hydroxide first and then hydrogen peroxide. The sterilization was conducted at 50° C.

The test system is the same in assay [2]. The note with it: for bactericidal effect (in words): text on Table Two; for Average: average of the logCFU/Swab replicates; for logCFU/Swab: log of surviving count per replicate (1-5); for logCFU/Swab / CFU/Swab: unagitated; for CFU/Swab: surviving count per replicate (1-5), contact times in label. Here is the method:
as §1, with “The” for “The following examples illustrate the efficacy of the method of the present invention. The”
A log measurement value is provided below each of the non-log values. The sterilization was conducted at 50° C.

The test system is the same in assay [3]. To be noted: 35° C., 30 seconds; for CFU/Swab: surviving count per replicate (1-5). Here is the method:
as §1, with “The” for “The following examples illustrate the efficacy of the method of the present invention. The”
In Table Three, a solution of 0.1 Normal potassium hydroxide (KOH) was utilized with a solution of 3% hydrogen peroxide at a temperature of 35° C. for 30 seconds.

Values joined by “and” are separate entries in the source; they are usually repeats but may differ in a detail not shown here. Equal entries are not always repeated. Where two headings read alike, the source gives them in different places.

With `[Na+].[OH-]` [1M NaOH Control, sodium hydroxide], the CFU/Swab in assay [1] was 5,700 CFU/Swab and 210 CFU/Swab.

As for `[Na+].[OH-]` [50° C. 10 s 0.25M NaOH Control, sodium hydroxide], in assay [2] (50° C.), the “bactericidal effect (in words)” value is “no bacteriocidal effect”; the logCFU/Swab was 6.80 logCFU/Swab and 6.90 logCFU/Swab; the CFU/Swab was 6,300,000 CFU/Swab and 3,800,000 CFU/Swab and 7,900,000 CFU/Swab and 5,400,000 CFU/Swab. Besides, the Average in assay [2] is given as 6.75.

In assay [2], `OO` [50° C. 30 s 35% H2O2 10 s catalase, hydrogen peroxide] showed an Average of 2.30. Moreover, in assay [2] (50° C.), the logCFU/Swab is 1.60 logCFU/Swab and 1.30 logCFU/Swab; the CFU/Swab is 40 CFU/Swab and 570 CFU/Swab and 20 CFU/Swab and 270 CFU/Swab and 2700 CFU/Swab. Besides, the “log inactivation per 10 seconds of treatment” value in assay [2] (rate of kill per unit time, 50° C.) came to 1.45 log per 10 seconds.

With `OO` [H2O2 Control, hydrogen peroxide], the CFU/Swab in assay [3] was 5,200,000 CFU/Swab.

Compound catalase [Catalase Control] came in with a logCFU/Swab in assay [3] (log of surviving count per replicate (1-5)) of 6.40 logCFU/Swab. The CFU/Swab in assay [3] was 2,500,000 CFU/Swab.

In the case of `OO` [50° C. 30 s 3.5% H2O2 10 s catalase, hydrogen peroxide], in assay [2] (50° C.), the “bactericidal effect (in words)” value is given as “no effect”; the logCFU/Swab is 6.20 logCFU/Swab and 6.60 logCFU/Swab and 6.70 logCFU/Swab; the CFU/Swab is 1,600,000 CFU/Swab and 4,200,000 CFU/Swab and 4,000,000 CFU/Swab and 3,000,000 CFU/Swab and 5,000,000 CFU/Swab. This compound yielded an Average in assay [2] of 6.52. In assay [2] (versus inoculated untreated control (average 6.66)), this compound had a Log reduction of 0.14.
